Where “and” joins values, the source holds several entries; their conditions need not be identical. Equal values may be shown once. Read-outs that look alike come from different tables or passages of the source.
Legend:
[1] = test system: HT1080 cells; experiment: mPMS dose-response with WST-1c and apigenin, cell viability; assay type: cell-based, human; conditions: mPMS variable with 1 mM WST-1c and 10, 30 or 100 μM apigenin
Method: (§1) Method: A & B: HT1080 (FIG. 16A) and UM-SCC6 (FIG. 16B) cells were treated with variable concentrations of mPMS as indicated in combination with 1 mM WST-1c and 10, 30 or 100 μM apigenin for 4 hours and, then, changed to normal growth medium for another 24 hours. Cell viabilities were measured by CCK8 Kit. 1 mM WST-1 only, 0.12 mM mPMS only and 10% WST-1r were used as parallel control. AP 0: Untreated Control, AP 10: 10 μM Apigenin, AP 30: 30 μM Apigenin, AP 100: 100 μM Apigenin.

[2] = test system: UM-SCC6 cells; experiment: as above; assay type: cell-based, human; conditions: for IC50: read-out: mPMS1050
Method: as §1

[3] = test system: non cancer human keratinocyte (HEKa); experiment: Differential cellular responses to mPMS, cell viability; assay type: cell-based
Method: (§2) Non cancer human keratinocyte (HEKa), SK-Mel-5 human malonoma cell line (SK5), human head and neck cancer cell Cal27 line (Cal27) and UM-SCC6 line (SCC6) cells and human soft tissue sarcoma cell line HT1080 (HT1080) were treated with 30, 40 or 50 μM mPMS for 4 hours and then cultured in normal growth medium for another 24 hours. Cell viabilities were measured with CCK8 kit.

[4] = test system: Cal27, UM-SCC6 and HT1080 cells; experiment: as above; assay type: cell-based, human; conditions: Cal27, UM-SCC6 and HT1080 cells 'respectively', only two values printed; read-out: 1050 of mPMS
Method: as §2

[5] = test system: HEKa, SK-Mel-5, Cal27, UM-SCC6 and HT1080 cells; experiment: Differential cellular responses to mPMS, cell viability, all lines; assay type: cell-based, human; conditions: 30, 40 or 50 μM mPMS 4 hours, then 24 hours
Method: as §2

[6] = test system: Cal27 cells; experiment: WST-3 with or without mPMS plus apigenin, cell viability; assay type: cell-based, human; conditions: 30 μM mPMS added to 0.1 mM WST-3 and 30 μM apigenin
Method: (§3) Method: UM-SCC6, HT1080, Cal127, SK-Mel-5, and HEKa cells were treated with 0.1 mM WST-3 plus 30 μM mPMS, or WST-3 only, or untreated control in combination with 10 or 30 μM apigenin for 4 hours and, then, changed to normal growth medium and remained culture in this medium for another 24 hours. After the 24 hours culture, cell viabilities were measured with CCK8 Kit. Data were normalized to % of untreated control cells.

[7] = test system: UM-SCC6 cells; experiment: as above; assay type: cell-based, human; conditions: 30 μM mPMS added to 0.1 mM WST-3 and 30 μM apigenin
Method: as §3

[8] = test system: HT1080 cells; experiment: DNA transfection, IKK inhibitor III and WST-1 combination, cell viability by CCK8; assay type: cell-based, human
Method: Methods: HT1080 cells were cultured in 96 well plates and transfected with one of the pUC19, pcDNA3, IKK1-KA, IKK1-KA+PUC19, or pcDNA3+pUC19 DNA vectors for 24 hours followed with treatment of IKK Inhibitor IIII at 3-30 μM for another 24 hours and, then, treated with 10% WST-1 for 4 hours and cultured overnight before detection. The same treatments of cells were measured at 24, 48 and 96 hours after WST-1 treatment. Cell viability was measured by Cell Count Kit 8 (CCK8).

[9] = test system: ROS generation in HT1080 cells; experiment: ROS labeling with CM-H2-DCFDA (imaging); assay type: cell-based, human; conditions: cells transfected with pUC19, no exposure to WST-1
Method: Methods: HT1080 cells were cultured in cover slices and transfected with pUC19 and treated with IKK inhibitor III in sequential. Following these treatment, the cells, thus, treated, were either labeled with CM-H2-DCFDA, a fluorescence dye that can labeling ROS in cells, and, then, treated with WST-1 for 30 minutes (FIG. 23A) or treated with WST-1 for 2 hours and then labeled with CM-H2-DCFDA (FIG. 23-B). The results were recorded by a digital camera with Spotlight software. Manuel exposure levels were used to maintain the same exposure level for comparison.

[10] = test system: SK-Mel-5 human melanoma cells; experiment: WST-1r then IKK inhibitor III, cell viability by CCK8; assay type: cell-based; conditions: WST-1r 1% and 3% 4 hours, then BMS345541 3 and 10 μM 24 hours; combination 3% WST-1r and 10 μM BMS345541
Method: (§4) Method: SK-Mel-5 and T294 human melanoma cells were treated with WST-1r at 1% and 3% final concentration respectively as indicated for 4 hours, then, removed WST-1r by changing to normal growth medium and added IKK inhibitor III for another 24 hours. After 24 hours treatment with 3 μM and 10 μM IKK inhibitor III respectively as indicated, cells were changed to grow in normal growth medium for 48 hours before measuring cell viability by CCK8 Kit.

[11] = test system: T294 human melanoma cells; experiment: as above; assay type: cell-based; conditions: WST-1r 1% and 3% 4 hours, then BMS345541 3 and 10 μM 24 hours; combination 3% WST-1r and 10 μM BMS345541
Method: as §4

[12] = test system: ROS generation in UM-SCC6 cells; experiment: Dose response of ROS generation (CM-H2-DCFDA fluorescence); assay type: cell-based, human
Method: Method: UM-SCC6 cells were labeled with 10 μM CM-H2-DCFDA for 15 minutes and then treated with WST-1r or CCK8 at the indicated amounts in combination with variable doses of apigenin (A) or IKK Inhibitor III (B) for 4 hours. Fluorescence at Ex485/Em535 were measured for detecting ROS generation that labeled by the CM-H2-DCFDA.

[13] = test system: HT1080 cells; experiment: siRNA or Puc19 transfection, IKK inhibitor III and WST-1r triple combination, CCK8; assay type: cell-based, human; conditions: IKK inhibitor 24 hours, then WST-1r 4 hour
Method: Method: HT1080 cells were transfected with siRNA#3, or the siRNA targeting MAGI3, and TMEM182 that were derived from Puc19 DNA sequence and the siRNAs that targeting the corresponding genes that are the targets of the Puc19 derived siRNAs for 24 hours, then, treated with IKK inhibitor III for 24 hours followed by adding WST-1r for another 4 hour. After the 4 hours WST-1r treatment, cells in culture were changed to normal growth medium for 24 hours. Cell viability were monitored by CCK8 Kit every 24 hours. Data were normalized to % of untreated control cells. AllStar siRNA was used as negative siRNA trasnfection control. Puc19 DNA vector transfection was used as positive control.
Data label: Untreated control: 0 Ctrl, WST-1r only: 10 Ctrl, pUC19 transfected cells: 0 p9, pUC19 transfected and WST-1r treated: 10 p9, AllStar negative contrl siRNA transfected: 0 AllStar, AllStar transfected and WST-1r treated: 10 AllStar, siRNA#3 transfected: 0 siRNA#3, siRNA#3 transfcted and WST-1r treated: 10 siRNA#3, siRNAMAGI3 transfected: 0 MAGI3, siRNA MAGI3 transfcted and WST-1r treated: 10 MAGI3, siRNATMEM182 transfected: 0 TMEM182, siRNATMEM182 transfcted and WST-1r treated: 10 TMEM182,

| Compound | cell death [1] | IC50 ([2]; combination of apigenin 100 μM and mPMS+WST-1) [µM] | cell death ([2]; mPMS variable with 1 mM WST-1c and 10, 30 or 100 μM apigenin) | IC50 ([2]; untreated control cells (no apigenin)) [µM] | sensitivity to mPMS treatment ([3]; compared with the cancer cell lines) | IC50 ([3]; mPMS 4 hours, then 24 hours) [µM] | IC50 [4] | cell death and sensitivity to mPMS [5] | effect of adding mPMS on cell death [6] | effect of adding mPMS on cell death [7] | cell death by morphology examination ([8]; 30 μM, 24 hours after the WST-1 treatment) | induction of cell death ([8]; cells transfected with any of the DNA vectors, IKK inhibitor III 3-30 μM, 24, 48 and 96 hour after WST-1 treatment, vs non transfected control) | labeled ROS [9] | cell death [10] | cell death [11] | ROS levels ([12]; 5 μM IKK Inhibitor, alone and with WST-1r) | ROS levels ([12]; 10 μM IKK Inhibitor III, alone and with WST-1r) | ROS levels ([12]; IKK Inhibitor III combined with CCK8) | cell death [13] |
| --- | --- | --- | --- | --- | --- | --- | --- | --- | --- | --- | --- | --- | --- | --- | --- | --- | --- | --- | --- |
| 1-methoxy-5-methyl-phenazinium methyl sulfate [mPMS] | dose dependent cell death | 30 | dose dependent cell death | 80 | least sensitivity to mPMS treatment | 50 | 20 µM and 30 µM | mPMS dose dependent cell death and differential sensitivities to mPMS treatment | further synergize the cell death | further synergize the cell death | – | – | – | – | – | – | – | – | – |
| Cc1ccc2nc(NCCN)c3ncc(C)n3c2c1 [IKK inhibitor III] | – | – | – | – | – | – | – | – | – | – | majority of the 30 μM IIKK inhibitor III treated cells died | significant IKK inhibitor III dose dependent induction of cell death | IKK inhibitor III dose dependent labeled ROS | dose dependent increase of cell deaths | dose dependent increase of cell deaths | increased ROS levels | decreased it | no combined effect with CCK8 on ROS levels | dose dependent cell death |

Reference: patent publication US8680129B2, “Compounds, composition, methods, targets for cancer therapy” (priority 2008, dated 2014)
